# Measurements taken from US9738634B2, “Heterocyclic amide compound and herbicide” (SYNGENTA PARTICIPATIONS AG, priority 2013, dated 2017).
# Legend:
# Type in all cases: in vivo
# Settings in all cases: treatment dosage 320 g/ha
# [1] = test system: black-grass; assay: Test Example 4: weedkilling efficacy by foliar treatment; H: black-grass
# In short: (§1)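 Seeds are spot-sown into sterilized diluvial soil and covered with about 1.5 cm of soil. After 14 days' greenhouse growth at 25 to 30° C, plants are sprayed on stems and leaves with diluted emulsion at the stated g/ha rate, then scored at 3 weeks.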
# [2] = test system: Italian ryegrass; assay: Test Example 3: weedkilling efficacy through soil treatment; I: Italian ryegrass
# In short: (§2)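 Crop and weed responses were judged three weeks after a uniform surface spray of the water-diluted emulsion at the given g/ha rate. Seeds sat beneath about 1.5 cm of sterilized diluvial soil, and boxes stood in a greenhouse at 25 to 30° C.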
# [3] = test system: chickweed; assay: Test Example 4: weedkilling efficacy by foliar treatment; N: chickweed
# In short: as §1
# [4] = test system: birds-eye speedwell; assay: Test Example 4: weedkilling efficacy by foliar treatment; p: birds-eye speedwell
# In short: as §1
# [5] = test system: bulrush; assay: Test Example 1: weedkilling efficacy, preemergent weed treatment in the submerged state; B: bulrush
# In short: (§3)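 Pre-emergence paddy test: weed seeds sown in submerged alluvial soil (4 cm water), 2.5-leaf rice transplanted, water-diluted emulsion applied to water surface at sowing at stated g/ha. Scored at 3 weeks, greenhouse 25–30 °C.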
# [6] = test system: Indian mallow; assay: Test Example 4: weedkilling efficacy by foliar treatment; K: Indian mallow
# In short: as §1
# [7] = test system: wheat; assay: Test Example 3: soil treatment, effect on crop; e: wheat
# In short: as §2
# [8] = test system: corn; assay: Test Example 4: foliar treatment, effect on crop; c: corn
# In short: as §1
# [9] = test system: birds-eye speedwell; assay: Test Example 3: weedkilling efficacy through soil treatment; p: birds-eye speedwell
# In short: as §2
# [10] = test system: fig-leafed goosefoot; assay: Test Example 3: weedkilling efficacy through soil treatment; M: fig-leafed goosefoot
# In short: as §2
# [11] = test system: oval-leafed pondweed; assay: Test Example 1: weedkilling efficacy, preemergent weed treatment in the submerged state; C: oval-leafed pondweed
# In short: as §3
# [12] = test system: fig-leafed goosefoot; assay: Test Example 4: weedkilling efficacy by foliar treatment; M: fig-leafed goosefoot
# In short: as §1
# [13] = test system: wild oat; assay: Test Example 4: weedkilling efficacy by foliar treatment; G: wild oat
# In short: as §1
# [14] = test system: beet; assay: Test Example 4: foliar treatment, effect on crop; f: beet
# In short: as §1
# [15] = test system: crabgrass; assay: Test Example 3: weedkilling efficacy through soil treatment; D: crabgrass
# In short: as §2
# [16] = test system: Italian ryegrass; assay: Test Example 4: weedkilling efficacy by foliar treatment; I: Italian ryegrass
# In short: as §1
# [17] = test system: soybean; assay: Test Example 4: foliar treatment, effect on crop; d: soybean
# In short: as §1
# [18] = test system: green foxtail; assay: Test Example 4: weedkilling efficacy by foliar treatment; E: green foxtail
# In short: as §1
# [19] = test system: common wind-grass; assay: Test Example 4: weedkilling efficacy by foliar treatment; J: common wind-grass
# In short: as §1
# [20] = test system: rapeseed; assay: Test Example 4: foliar treatment, effect on crop; g: rapeseed
# In short: as §1
# [21] = test system: catchweed; assay: Test Example 3: weedkilling efficacy through soil treatment; O: catchweed
# In short: as §2
# [22] = test system: barnyard grass; assay: Test Example 2: weedkilling efficacy, growth period weed treatment in the submerged state; A: barnyard grass
# In short: (§4)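 Seedlings at 1-2 leaves in 4 cm-deep submerged alluvial soil received emulsion formulations on the water surface, dosed per hectare; effects were judged 3 weeks on.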
# [23] = test system: wheat; assay: Test Example 4: foliar treatment, effect on crop; e: wheat
# In short: as §1
# [24] = test system: barnyard grass; assay: Test Example 4: weedkilling efficacy by foliar treatment; F: barnyard grass
# In short: as §1
# [25] = test system: common wind-grass; assay: Test Example 3: weedkilling efficacy through soil treatment; J: common wind-grass
# In short: as §2
# [26] = test system: redroot pigweed; assay: Test Example 4: weedkilling efficacy by foliar treatment; L: redroot pigweed
# In short: as §1
# [27] = test system: oval-leafed pondweed; assay: Test Example 2: weedkilling efficacy, growth period weed treatment in the submerged state; C: oval-leafed pondweed
# In short: as §4
# [28] = test system: soybean; assay: Test Example 3: soil treatment, effect on crop; d: soybean
# In short: as §2
# [29] = test system: catchweed; assay: Test Example 4: weedkilling efficacy by foliar treatment; O: catchweed
# In short: as §1
# [30] = test system: directly sown rice; assay: Test Example 3: soil treatment, effect on crop; b: directly sown rice
# In short: as §2
# [31] = test system: crabgrass; assay: Test Example 4: weedkilling efficacy by foliar treatment; D: crabgrass
# In short: as §1
# [32] = test system: directly sown rice; assay: Test Example 4: foliar treatment, effect on crop; b: directly sown rice
# In short: as §1
# [33] = test system: bulrush; assay: Test Example 2: weedkilling efficacy, growth period weed treatment in the submerged state; B: bulrush
# In short: as §4
# [34] = test system: wild oat; assay: Test Example 3: weedkilling efficacy through soil treatment; G: wild oat
# In short: as §2
# [35] = test system: chickweed; assay: Test Example 3: weedkilling efficacy through soil treatment; N: chickweed
# In short: as §2
# [36] = test system: transplanted rice; assay: Test Example 1: preemergent weed treatment in the submerged state, effect on crop; a: transplanted rice
# In short: as §3
# [37] = test system: barnyard grass; assay: Test Example 3: weedkilling efficacy through soil treatment; F: barnyard grass
# In short: as §2
# [38] = test system: black-grass; assay: Test Example 3: weedkilling efficacy through soil treatment; H: black-grass
# In short: as §2
# [39] = test system: Indian mallow; assay: Test Example 3: weedkilling efficacy through soil treatment; K: Indian mallow
# In short: as §2
# [40] = test system: beet; assay: Test Example 3: soil treatment, effect on crop; f: beet
# In short: as §2
# [41] = test system: green foxtail; assay: Test Example 3: weedkilling efficacy through soil treatment; E: green foxtail
# In short: as §2
# [42] = test system: barnyard grass; assay: Test Example 1: weedkilling efficacy, preemergent weed treatment in the submerged state; A: barnyard grass
# In short: as §3
# [43] = test system: rapeseed; assay: Test Example 3: soil treatment, effect on crop; g: rapeseed
# In short: as §2
# [44] = test system: redroot pigweed; assay: Test Example 3: weedkilling efficacy through soil treatment; L: redroot pigweed
# In short: as §2
# [45] = test system: corn; assay: Test Example 3: soil treatment, effect on crop; c: corn
# In short: as §2
structure (smiles),measurement,setting,value
CC1=C(c2ccccc2)C(=O)N(C(C)(C)C(=O)Nc2cc(C(F)F)cc(Cl)n2)CO1 [B-2-44],H (black-grass) weedkilling efficacy grade,[1],"5 (weed kill ratio 90% or more, (practically complete withering))"
same,I (Italian ryegrass) weedkilling efficacy grade,[2],"5 (weed kill ratio 90% or more, (practically complete withering))"
same,N (chickweed) weedkilling efficacy grade,[3],"4 (weed kill ratio 70% or more, less than 90%)"
same,P (birds-eye speedwell) weedkilling efficacy grade,[4],"5 (weed kill ratio 90% or more, (practically complete withering))"
same,B (bulrush) weedkilling efficacy grade,[5],"5 (weed kill ratio 90% or more, (practically complete withering))"
same,K (Indian mallow) weedkilling efficacy grade,[6],"4 (weed kill ratio 70% or more, less than 90%)"
same,e (wheat) effect on crop grade,[7],"1 (weed kill ratio 5% or more, less than 20%)"
same,c (corn) effect on crop grade,[8],"1 (weed kill ratio 5% or more, less than 20%)"
same,P (birds-eye speedwell) weedkilling efficacy grade,[9],"4 (weed kill ratio 70% or more, less than 90%)"
same,M (fig-leafed goosefoot) weedkilling efficacy grade,[10],"3 (weed kill ratio 40% or more, less than 70%)"
same,C (oval-leafed pondweed) weedkilling efficacy grade,[11],"5 (weed kill ratio 90% or more, (practically complete withering))"
same,M (fig-leafed goosefoot) weedkilling efficacy grade,[12],"3 (weed kill ratio 40% or more, less than 70%)"
same,G (wild oat) weedkilling efficacy grade,[13],"3 (weed kill ratio 40% or more, less than 70%)"
same,f (beet) effect on crop grade,[14],"3 (weed kill ratio 40% or more, less than 70%)"
same,D (crabgrass) weedkilling efficacy grade,[15],"5 (weed kill ratio 90% or more, (practically complete withering))"
same,I (Italian ryegrass) weedkilling efficacy grade,[16],"5 (weed kill ratio 90% or more, (practically complete withering))"
same,d (soybean) effect on crop grade,[17],"4 (weed kill ratio 70% or more, less than 90%)"
same,E (green foxtail) weedkilling efficacy grade,[18],"5 (weed kill ratio 90% or more, (practically complete withering))"
same,J (common wind-grass) weedkilling efficacy grade,[19],"5 (weed kill ratio 90% or more, (practically complete withering))"
same,g (rapeseed) effect on crop grade,[20],"5 (weed kill ratio 90% or more, (practically complete withering))"
same,O (catchweed) weedkilling efficacy grade,[21],0 (weed kill ratio 5% or less (practically no effect))
same,A (barnyard grass) weedkilling efficacy grade,[22],"5 (weed kill ratio 90% or more, (practically complete withering))"
same,e (wheat) effect on crop grade,[23],"4 (weed kill ratio 70% or more, less than 90%)"
same,F (barnyard grass) weedkilling efficacy grade,[24],"4 (weed kill ratio 70% or more, less than 90%)"
same,J (common wind-grass) weedkilling efficacy grade,[25],"5 (weed kill ratio 90% or more, (practically complete withering))"
same,L (redroot pigweed) weedkilling efficacy grade,[26],"3 (weed kill ratio 40% or more, less than 70%)"
same,C (oval-leafed pondweed) weedkilling efficacy grade,[27],"5 (weed kill ratio 90% or more, (practically complete withering))"
same,d (soybean) effect on crop grade,[28],0 (weed kill ratio 5% or less (practically no effect))
same,O (catchweed) weedkilling efficacy grade,[29],"5 (weed kill ratio 90% or more, (practically complete withering))"
same,b (directly sown rice) effect on crop grade,[30],"3 (weed kill ratio 40% or more, less than 70%)"
same,D (crabgrass) weedkilling efficacy grade,[31],"4 (weed kill ratio 70% or more, less than 90%)"
same,b (directly sown rice) effect on crop grade,[32],"3 (weed kill ratio 40% or more, less than 70%)"
same,B (bulrush) weedkilling efficacy grade,[33],"5 (weed kill ratio 90% or more, (practically complete withering))"
same,G (wild oat) weedkilling efficacy grade,[34],"2 (weed kill ratio 20% or more, less than 40%)"
same,N (chickweed) weedkilling efficacy grade,[35],"3 (weed kill ratio 40% or more, less than 70%)"
same,a (transplanted rice) effect on crop grade,[36],"5 (weed kill ratio 90% or more, (practically complete withering))"
same,F (barnyard grass) weedkilling efficacy grade,[37],"5 (weed kill ratio 90% or more, (practically complete withering))"
same,H (black-grass) weedkilling efficacy grade,[38],"5 (weed kill ratio 90% or more, (practically complete withering))"
same,K (Indian mallow) weedkilling efficacy grade,[39],0 (weed kill ratio 5% or less (practically no effect))
same,f (beet) effect on crop grade,[40],"3 (weed kill ratio 40% or more, less than 70%)"
same,E (green foxtail) weedkilling efficacy grade,[41],"5 (weed kill ratio 90% or more, (practically complete withering))"
same,A (barnyard grass) weedkilling efficacy grade,[42],"5 (weed kill ratio 90% or more, (practically complete withering))"
same,g (rapeseed) effect on crop grade,[43],"4 (weed kill ratio 70% or more, less than 90%)"
same,L (redroot pigweed) weedkilling efficacy grade,[44],0 (weed kill ratio 5% or less (practically no effect))
same,c (corn) effect on crop grade,[45],0 (weed kill ratio 5% or less (practically no effect))
